From ChEMBL document CHEMBL1128762, “The design of polar -turn dipeptide mimetics” (Bioorg Med Chem Lett, 1995)
Positions of bridges follow the written chain, without caps; N, C: chain ends. Non-standard residues stand in square brackets, D forms with d. Residues, ends and D or L forms follow the SMILES beside them. *: point of attachment. Cbz = O=C(OCc1ccccc1)*; Dap = NC[C@H](N)C(=O)O

Columns and labels:
Substance-K receptor = target: T1, Substance-K receptor (Mesocricetus auratus, UniProt P51144); experiment: Binding affinity towards Tachykinin receptor 2 using [125I]iodohistidyl-NKA (0.1 nM)) as radioligand; design: species or system Cricetulus griseus
T1 sequence (P51144 whole entry): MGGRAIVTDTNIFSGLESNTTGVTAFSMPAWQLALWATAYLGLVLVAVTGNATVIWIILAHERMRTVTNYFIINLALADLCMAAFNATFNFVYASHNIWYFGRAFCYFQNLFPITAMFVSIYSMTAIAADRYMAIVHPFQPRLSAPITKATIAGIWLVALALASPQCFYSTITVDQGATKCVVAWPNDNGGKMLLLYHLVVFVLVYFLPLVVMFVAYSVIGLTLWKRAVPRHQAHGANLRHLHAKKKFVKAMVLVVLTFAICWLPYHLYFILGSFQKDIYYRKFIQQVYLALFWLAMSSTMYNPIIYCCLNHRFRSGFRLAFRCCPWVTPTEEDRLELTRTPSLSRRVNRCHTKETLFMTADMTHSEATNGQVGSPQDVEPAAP

Neuromedin-K receptor = target: T2, Neuromedin-K receptor (Homo sapiens, UniProt P29371); experiment: Binding affinity towards Tachykinin receptor 3 using [125I]-[Mephe7] NKB as radioligand
T2 sequence (P29371 whole entry): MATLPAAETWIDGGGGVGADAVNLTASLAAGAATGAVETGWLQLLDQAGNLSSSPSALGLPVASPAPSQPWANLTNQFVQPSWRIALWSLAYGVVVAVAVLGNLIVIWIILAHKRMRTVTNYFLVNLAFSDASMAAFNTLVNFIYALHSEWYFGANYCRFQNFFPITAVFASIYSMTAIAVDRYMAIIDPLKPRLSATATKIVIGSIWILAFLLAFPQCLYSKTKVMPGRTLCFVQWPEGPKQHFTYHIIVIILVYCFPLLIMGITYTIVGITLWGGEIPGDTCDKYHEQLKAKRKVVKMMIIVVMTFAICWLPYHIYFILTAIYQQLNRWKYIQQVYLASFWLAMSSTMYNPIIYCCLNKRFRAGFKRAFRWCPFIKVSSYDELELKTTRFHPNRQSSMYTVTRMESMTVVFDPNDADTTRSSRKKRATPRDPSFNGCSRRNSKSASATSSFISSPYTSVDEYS

| IC50 (Substance-K receptor) | IC50 (Neuromedin-K receptor) | Compound |
| --- | --- | --- |
| 19.8 µM |  | Ac-LMQWFG-OH |
| > 10 µM |  | O=C(Cc1c[nH]c2ccccc12)N1CCC(Cc2ccccc2)C1 (stereo unspecified) |
| > 10 µM |  | CSCC[C@@H]1NC(=O)[C@H](CC(C)C)NC(=O)[C@@H]2CNC(=O)C[C@H](NC1=O)C(=O)N[C@@H](Cc1c[nH]c3ccccc13)C(=O)N[C@@H](Cc1ccccc1)C(=O)N2 (cyclo(DWF[Dap]LM); lactam 1-4) |
| 5.2 µM | 9.3 µM | NC(=O)[C@H](Cc1ccccc1)NC(=O)[C@H](Cc1c[nH]c2ccccc12)NC(=O)OCc1ccccc1 (Cbz-Trp-Phe-NH2) |
|  | 9.4 µM | O=C(Cc1ccccc1)N1CCC(Cc2ccccc2)C1 (stereo unspecified) |
